Laboratory results reported in patent US20200281834A1, “COMPOSITION FOR PROMOTING EXPRESSION OF AQUAPORIN 3, AND USE THEREOF” (SUNTORY HOLDINGS LIMITED, priority 2017, published 2020).
Values joined by “and” are separate entries in the source; they are usually repeats but may differ in a detail not shown here. Equal entries are not always repeated.

Test system: aquaporin 3
Test: Expression level of aquaporin 3 in skin epithelial cells (real-time PCR, corrected for GAPDH)
Assay type: cell-based, Human
Settings: NHEK, 24 hours
[1] = 30 μM, control (culture solution) = 1.0
[2] = 50 μM, control (culture solution) = 1.0

Molecule	Relative gene expression level (average) of aquaporin 3 [1]	Relative gene expression level (average) of aquaporin 3 [2]	Relative gene expression level (average) of aquaporin 3 (2 μM, control (50% ethanol) = 1.0)	Relative gene expression level (average) of aquaporin 3 (2 μM, control (culture solution) = 1.0, listed as RA)
O=C(O[C@@H]1Cc2c(O)cc(O)cc2O[C@@H]1c1ccc(O)c(O)c1)c1cc(O)c(O)c(O)c1 [ECG, epicatechin gallate]	1.63	1.25		
Oc1cc(O)c2c(c1)O[C@H](c1ccc(O)c(O)c1)[C@@H](O)[C@@H]2c1c(O)cc(O)c2c1O[C@H](c1ccc(O)c(O)c1)[C@H](O)C2 [C-EC, procyanidin B4]	1.24	1.12		
O=C(O[C@@H]1Cc2c(O)cc(O)c([C@@H]3c4c(O)cc(O)cc4O[C@H](c4ccc(O)c(O)c4)[C@H]3O)c2O[C@@H]1c1ccc(O)c(O)c1)c1cc(O)c(O)c(O)c1 [C-ECG, (+)-catechin-(−)epicatechin-3-O-gallate]	2.19	2.59		
Oc1cc(O)c2c(c1)O[C@H](c1ccc(O)c(O)c1)[C@H](O)[C@H]2c1c(O)cc(O)c2c1O[C@H](c1ccc(O)c(O)c1)[C@H](O)[C@H]2c1c(O)cc(O)c2c1O[C@H](c1ccc(O)c(O)c1)[C@H](O)C2 [PC1, procyanidin C1]	1.41	1.34		
Oc1cc(O)c2c(c1)O[C@H](c1ccc(O)c(O)c1)[C@H](O)C2 [EC, epicatechin]	1.15	1.21		
Oc1cc(O)c2c(c1)O[C@H](c1ccc(O)c(O)c1)[C@H](O)[C@H]2c1c(O)cc(O)c2c1O[C@H](c1ccc(O)c(O)c1)[C@H](O)C2 [EC-EC, procyanidin B2]	0.98	0.99		
Oc1cc(O)c2c(c1)O[C@H](c1ccc(O)c(O)c1)[C@@H](O)[C@@H]2c1c(O)cc(O)c2c1O[C@H](c1ccc(O)c(O)c1)[C@@H](O)C2 [C-C, Procyanidin B3]	1.19	1.27		
catechin	1.19	1.14		
Oc1cc(O)c2c(c1)O[C@H](c1ccc(O)c(O)c1)[C@H](O)[C@H]2c1c(O)cc(O)c2c1O[C@H](c1ccc(O)c(O)c1)[C@@H](O)C2 [EC-C, Procyanidin B1]	1.14	1.20		
CC1=C(/C=C/C(C)=C/C=C/C(C)=C/C(=O)O)C(C)(C)CCC1 [Retinoic acid, retinoic acid]			1.61	1.32 and 1.36 and 1.21
(+)-catechin-(+)-catechin-(−)-epicatechin-3-O-gallate [C-C-ECG]	2.01	2.50		
O=C(O[C@@H]1Cc2c(O)cc(O)cc2O[C@@H]1c1cc(O)c(O)c(O)c1)c1cc(O)c(O)c(O)c1 [EGCG, epigallocatechin gallate]	1.36	1.47		
